These are literature values, as cited in patent publication US20230287038A1, “PURIFIED SAPONINS AND CHROMATOGRAPHIC PROCESS FOR PURIFICATION OF SAME” (ACCESS TO ADVANCED HEALTH INSTITUTE, priority 2020, published 2023).

For data set [1] the following is noted: reversed-phase chromatography fractions of saponin extract.
The test system of data set [2] is antigens bovine serum albumin and cytochrome b5. The following applies: mice.
For data set [3] the following is noted: aqueous solution.
The test system of data set [4] is unconjugated bacterial polysaccharides. Conditions: including unconjugated bacterial polysaccharides.

Consider QS-17, for which, in data set [1], the adjuvant activity result is reported as “identified with adjuvant activity”. Further, the “antibody response to bovine serum albumin and cytochrome b5” value in data set [2] is given as “stimulate potent antibody responses”.
For the substance QS-18, the adjuvant activity entry in data set [1] was “identified with adjuvant activity”. Moreover, the “antibody response to bovine serum albumin and cytochrome b5” value in data set [2] is “stimulate potent antibody responses”.
With QS-21, the adjuvant activity entry in data set [1] is listed as “identified with adjuvant activity”. In data set [2], the “antibody response to bovine serum albumin and cytochrome b5” value is “stimulate potent antibody responses”. The “pH at which hydrolysis of the fatty acyl ester bond (de-acylation) is minimized” value in data set [3] is approximately 5.5. Further, the “antibody response to T-independent antigens” value in data set [4] was “enhance antibody responses”.
